The values that follow come from the METLIN SMRT retention time set (Domingo-Almenara et al. 2019).

The data set can be described thus: gradient 5% acetonitrile 3 min, to 50% in 2 min, to 85% in 15 min, held 3 min, 100 µL/min. The following applies: column: Zorbax Extend-C18 2.1 x 50 mm; eluents: water / acetonitrile, 0.1% formic acid. Summed up:
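In both positive and negative ionization mode, a quadrupole time-of-flight mass spectrometer coupled to HPLC analyzed pure standards run in mixtures of ~100 molecules. The Zorbax Extend-C18 column (2.1 × 50 mm, 1.8 μm) was operated at 100 μL/min with water and acetonitrile, each containing 0.1% formic acid. The dead volume was 40 μL and the dwell volume 900 μL. Retention time came from adduct peaks that were computationally picked and individually inspected by hand.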
Take `CC(=O)N1c2ccc(S(=O)(=O)N3CCCCC3)cc2CC1C(=O)Nc1ccc(C)cc1C` (centres undefined): the RP-LC retention time amounted to 868 s.

Turning to `COc1ccc(C2C(C(=O)N3CCOCC3)=C(C)NC3=C2C(=O)CC(C)(C)C3)c(OC)c1` (centres undefined), the RP-LC retention time stood at 973 s. Turning to `COC(=O)c1cc(S(=O)(=O)N2CCCC2C(=O)Nc2ccc3c(c2)OCCO3)cn1C` (centres undefined), the RP-LC retention time turned out to be 794 s. In turn, `NCCSSCc1ccccc1CSSCCN` had an RP-LC retention time of 567 s.

In turn, `Cc1ccc(CNC(=O)COc2ccccc2-c2nnc(-c3ccccc3)o2)o1` yielded an RP-LC retention time of 1040 s. With `CCOc1ccc(-c2nc(-c3ccc4c(c3)oc(=O)n4C(C)C)no2)cc1OCC` the figure was 1260 s; with `O=C(Cn1c(C2CCCO2)nc2ccccc21)NCc1cccs1` (centres undefined), 615 s; with `O=C(NCc1ccc(F)cc1)C1(CCO)CCN(c2ncccn2)C1` (centres undefined), 609 s. The same measure for `CC1(C)Cc2cccc(OCC(=O)Nc3cccc(-c4ccn[nH]4)c3)c2O1`: 775 s.

`COc1cnc(NS(=O)(=O)c2ccc(N)cc2)nc1`: the RP-LC retention time is 675 s. With `O=C(CSc1nccn1-c1ccc([N+](=O)[O-])cc1)NC1CCCCC1`, the RP-LC retention time was 730 s.

Turning to `CCOc1ccc(NC(=O)Cn2c(N3CCOCC3)nc(CC)cc2=O)cc1`, the RP-LC retention time was 732 s. The compound `O=C1NCCCCCCN(C(=O)c2cccs2)[C@H]2CCC[C@@H]12` registered an RP-LC retention time of 745 s. Regarding `CC(C)c1nccn1C1CN(C(=O)C2CCCCC2)C1`, the RP-LC retention time came to 594 s. The same measure for `COc1ccc(S(=O)(=O)N2CCCC(C(=O)NCCCO)C2)cc1C` (centres undefined): 709 s. `O=c1[nH]c2sc3c(c2c(=O)n1-c1ccccc1)CCCC3`: the RP-LC retention time stood at 772 s.

Compound `FC(F)(F)c1cccc(CSc2ccc(-n3ccnc3)nn2)c1` yielded an RP-LC retention time of 671 s.

With `CCCc1noc(-c2ccnc(-n3cnc(C(=O)NC(C)C)c3)c2)n1`, the RP-LC retention time amounted to 849 s. With `Cc1ccc(C(=O)N2CCCC(COc3ccc(C(=O)NC(C)C)cc3)C2)cc1C` (centres undefined) the figure was 931 s; with `COc1cccc(S(=O)(=O)N2CCC3(C2)C(=O)Nc2ccc(OC)cc23)c1` (centres undefined), 816 s; with `O=c1n(CCOc2ccc(F)cc2)nc2ccc(S(=O)(=O)N3CCOCC3)cn12`, 811 s. The same measure for `CCc1ccc(NC(=O)C2CCN(S(C)(=O)=O)c3cc(Cl)ccc3O2)cc1` (centres undefined): 944 s. With `CCN(CC)C(=O)Cn1c(=O)c2cnc(-c3ccc(Cl)cc3)nc2n(CC)c1=O`, the RP-LC retention time turned out to be 740 s. The same measure for `COc1ccc(NC2=NC(C)(CO)CS2)cc1` (centres undefined): 638 s. The compound `O=C(Cn1cccc(-c2nc(-c3ccc(F)cc3)no2)c1=O)NCC1CCCO1` (centres undefined) gave an RP-LC retention time of 706 s. The compound `CC(C)CN1C(=O)c2cccn2CC1C(=O)NCCN(C)C1CCCCC1` (centres undefined) yielded an RP-LC retention time of 614 s. `O=C(CSc1nc(-c2cccc([N+](=O)[O-])c2)cs1)NCc1ccc2c(c1)OCO2` had an RP-LC retention time of 865 s. With `CCCNC(=O)C1CCN(c2nc3ccsc3c(=O)n2Cc2ccc(F)cc2)CC1` the figure was 807 s; with `Cc1sc(C)c(S(=O)(=O)Nc2cccc(F)c2)c1-c1cc(C(F)(F)F)on1`, 1140 s.

`CC(NC(=O)CCc1c(-c2ccc(Cl)cc2)nc2ccccn12)c1ccccc1` (centres undefined) displayed an RP-LC retention time of 700 s. With `Clc1cccc(-n2ncc3c(SCc4cccnc4)ncnc32)c1` the figure was 820 s. The same measure for `COc1ccc(C2Cn3nnc(-c4nc(-c5ccc(OC(F)(F)F)cc5)no4)c3CO2)cc1` (centres undefined): 1240 s; for `COc1ccc(Cl)cc1NC(=O)C1CCCN(c2nc3ccccc3nc2C(F)(F)F)C1` (centres undefined): 693 s.

With `CCOc1cc2c(cc1OCC)C1C(C(=O)NCCN3CCOCC3)c3ccccc3C(=O)N1CC2` (centres undefined), the RP-LC retention time is 615 s. With `COc1cc(NC(=O)NCCc2nc3cccnc3n2-c2ccccc2)cc(OC)c1OC` the figure was 682 s; with `CC(C)CCN(C1CCOCC1)C1CCN(C(=O)Nc2cccc(F)c2)CC1`, 650 s. With `CCN(Cc1ccc(OC)cc1)Cc1cc(=O)c2cc(F)ccc2[nH]1` the figure was 613 s; with `COc1cc(OC)c(NC(=O)C(C)Oc2ccc(=O)n(-c3ccc(F)cc3)n2)cc1Cl` (centres undefined), 844 s; with `Cc1ccc2c(=O)c3c([nH]c2c1C)CCN(CC(=O)Nc1ccc2c(c1)OCCO2)C3`, 667 s.

The compound `Cc1ccc(NC(=O)C2CCN(S(=O)(=O)c3ccc4c(c3)CCCC(=O)N4)CC2)c(C)c1` returned an RP-LC retention time of 774 s. With `Cc1ccc(Nc2nc(C(=O)NC3CCCCCC3)nc3ccccc23)cc1` the figure was 966 s; with `O=S(=O)(c1ccc2nc(N3CCN(c4ccccc4F)CC3)ccc2c1)N1CCCCC1`, 1160 s; with `O=C(Nc1sc2c(c1C(c1ccccn1)N1CCN(c3ccccn3)CC1)CCCC2)c1ccco1` (centres undefined), 775 s. The compound `CSc1nnc(-c2nn(C)c3c2CN(C(=O)c2cccc(F)c2)CC3)n1C` came in with an RP-LC retention time of 693 s.

Compound `C[C@@H](c1ncncc1F)[C@@](O)(Cn1cncn1)c1ccc(F)cc1F` showed an RP-LC retention time of 870 s. The same measure for `CC(C)Cn1c(=O)c2cc(C(=O)NCc3cc(F)ccc3F)nn2c2ccccc21`: 1030 s; for `CN1CCC2(CC1)N=C(c1ccc(Br)cc1)CC(c1cc(Cl)ccc1O)N2` (centres undefined): 675 s. `COc1ccccc1-c1noc(Cn2ncn3nc(-c4ccc(F)cc4)cc3c2=O)n1` returned an RP-LC retention time of 996 s. As for `Cc1ccccc1CNC(=O)CN1C(=O)C(C)(C)c2ccccc21`, the RP-LC retention time was determined as 874 s. The same measure for `CC(C)NC[C@H](O)COc1cccc2ccccc12`: 720 s; for `CCOc1cccc(-c2noc(Cn3c(=O)n(-c4cccc(F)c4)c(=O)c4sccc43)n2)c1`: 1040 s; for `CCN(Cc1ccccc1)C(=O)Cn1c(N2CCOCC2)nc(C)cc1=O`: 673 s. In the case of `CCC(CO)NCc1ccc(-c2ccccc2)o1` (centres undefined), the RP-LC retention time was found to be 624 s. Compound `COCC(=O)N1CCc2c([nH]c3ccccc23)C1c1ccc(C)cc1` (centres undefined) came in with an RP-LC retention time of 971 s. The same measure for `O=C(Nc1nnc(SCCN2CCOCC2)s1)C1CCC1`: 544 s.

The compound `CC(C)n1cc(S(=O)(=O)NCc2cccc(Cl)c2)c2cccnc21` displayed an RP-LC retention time of 928 s. `Cc1nc(C)c(-c2ccc(=O)n(CCNC(=O)c3csc(-c4ccccc4)n3)n2)s1` showed an RP-LC retention time of 683 s. With `COc1ccc(-c2cc(C(=O)Nc3ccccc3F)nn2C2CCS(=O)(=O)C2)cc1` (centres undefined) the figure was 928 s; with `Cc1cc(=O)n(CC(=O)Nc2ccc(F)c(F)c2)c(N2CCCC2)n1`, 671 s; with `CCOc1ccc(NC(=O)Cc2nnc(-c3ccc4ncccc4c3)o2)cc1`, 718 s. With `O=C(c1ccco1)N1CCC[C@H]1c1nc(-c2ccccc2)n[nH]1` the figure was 652 s; with `O=C(c1ccc(OCC2CCCN2C(=O)C2CC2)cc1)N1CCCC1` (centres undefined), 714 s; with `Cc1ccc(Cn2nc3ccc(S(=O)(=O)N4CCCC4)cn3c2=O)cc1`, 895 s. For `COc1ccc(C(=O)Oc2ccc(/C=C/c3ccncc3)cc2OC)cc1OC`, the RP-LC retention time amounted to 606 s. With `COc1ccc(NC(=O)N2CCc3[nH]cnc3C2c2ccccn2)cc1OC` (centres undefined) the figure was 568 s; with `COc1ccccc1N1CCN(c2cc(SCC(=O)NCc3ccccc3)ncn2)CC1`, 823 s.

In the case of `COc1ccc(-c2nc(NC(=O)CSc3ccccc3)sc2CCC(=O)O)cc1`, the RP-LC retention time was determined as 852 s.

Turning to `Cc1ccc(C)c(N2C(=O)CN(S(C)(=O)=O)CC2(C)C(=O)NCc2ccc(F)cc2)c1` (centres undefined), the RP-LC retention time turned out to be 840 s.

As to `Cc1ccc(CCNC(=O)Cn2c(C)nc3onc(C)c3c2=O)cc1`, the RP-LC retention time was 787 s. The same measure for `CCc1ccc(CN2CCC([C@@H]3CNC[C@H]3CO)CC2)cc1`: 558 s; for `CCCn1c(C)cnc1C1CN(S(=O)(=O)c2cc(Cl)ccc2Cl)C1`: 607 s. On to `Cc1ccc(Cl)c(NS(=O)(=O)c2cc(-c3[nH]ncc3C(=O)N3CCCC3)oc2C)c1`, for which the RP-LC retention time is 739 s. The same measure for `Cc1cc(C(=O)Nc2cccc(Cl)c2)nc2ccnn12`: 988 s. In the case of `CCc1csc(-c2cn(CC(=O)NCc3ccc(Cl)cc3)cn2)n1`, the RP-LC retention time came to 724 s. With `C[C@]12CC[C@H](O)CC1=CC[C@@H]1[C@@H]2CC[C@]2(C)c3[nH]ncc3C[C@@H]12` the figure was 796 s. The same measure for `CN1CCN(CCCNC(=O)C2CCN(S(=O)(=O)c3ccc4c(c3)sc(=O)n4C)CC2)CC1`: 580 s; for `Cn1nccc1C(=O)N1CCCCCCNC(=O)[C@@H]2CCCC[C@@H]21`: 705 s; for `O=c1n(Cc2cccc(Cl)c2)nc2c(S(=O)(=O)N3CCCCC3)cccn12`: 935 s. Turning to `CCc1ccc(NC(=O)C2CCN(S(=O)(=O)c3ccc4c(c3)NC(=O)C(C)O4)CC2)cc1` (centres undefined), the RP-LC retention time was 927 s.
